According to ChEMBL document CHEMBL5154899, “Spiropyrimidinetrione DNA Gyrase Inhibitors with Potent and Selective Antituberculosis Activity” (J Med Chem, 2022):
Converted amounts (≈) assume the structure as drawn.

How the values were obtained:
DNA gyrase = DNA gyrase (Staphylococcus aureus, UniProt P0A0K8+P20831)
[1] = tested on: Mycobacterium tuberculosis; test: microbe, parasite or virus in culture; settings: H37Rv, 192 h
Description: Antibacterial activity against Mycobacterium tuberculosis H37Rv assessed as inhibition of bacterial growth measured after 8 days by Alamar blue reagent based broth microdilution method

[2] = molecular target: DNA gyrase subunit A/DNA gyrase subunit B (Mycobacterium tuberculosis (strain ATCC 25618 / H37Rv), UniProt P9WG45+P9WG47); test: Inhibition of Mycobacterium tuberculosis H37Rv DNA gyrase
Chain of DNA gyrase subunit A/DNA gyrase subunit B (P9WG45 whole entry): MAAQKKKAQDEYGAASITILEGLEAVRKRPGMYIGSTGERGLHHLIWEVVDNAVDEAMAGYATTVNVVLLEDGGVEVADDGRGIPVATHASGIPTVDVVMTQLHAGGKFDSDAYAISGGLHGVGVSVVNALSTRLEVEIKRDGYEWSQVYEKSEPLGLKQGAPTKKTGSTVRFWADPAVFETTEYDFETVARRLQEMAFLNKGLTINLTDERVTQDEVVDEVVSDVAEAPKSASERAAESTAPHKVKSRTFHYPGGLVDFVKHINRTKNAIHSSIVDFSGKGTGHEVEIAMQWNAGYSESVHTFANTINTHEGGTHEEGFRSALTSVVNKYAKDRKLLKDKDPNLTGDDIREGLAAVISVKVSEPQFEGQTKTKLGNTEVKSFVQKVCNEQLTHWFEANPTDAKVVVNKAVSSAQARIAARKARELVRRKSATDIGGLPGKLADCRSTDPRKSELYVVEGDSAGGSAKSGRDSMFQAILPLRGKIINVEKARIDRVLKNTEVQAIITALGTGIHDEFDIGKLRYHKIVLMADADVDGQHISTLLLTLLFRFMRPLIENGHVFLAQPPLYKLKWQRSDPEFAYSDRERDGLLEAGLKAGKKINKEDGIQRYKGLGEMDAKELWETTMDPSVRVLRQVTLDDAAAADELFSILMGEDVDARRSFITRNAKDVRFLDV
Chain of DNA gyrase subunit A/DNA gyrase subunit B (P9WG47 whole entry): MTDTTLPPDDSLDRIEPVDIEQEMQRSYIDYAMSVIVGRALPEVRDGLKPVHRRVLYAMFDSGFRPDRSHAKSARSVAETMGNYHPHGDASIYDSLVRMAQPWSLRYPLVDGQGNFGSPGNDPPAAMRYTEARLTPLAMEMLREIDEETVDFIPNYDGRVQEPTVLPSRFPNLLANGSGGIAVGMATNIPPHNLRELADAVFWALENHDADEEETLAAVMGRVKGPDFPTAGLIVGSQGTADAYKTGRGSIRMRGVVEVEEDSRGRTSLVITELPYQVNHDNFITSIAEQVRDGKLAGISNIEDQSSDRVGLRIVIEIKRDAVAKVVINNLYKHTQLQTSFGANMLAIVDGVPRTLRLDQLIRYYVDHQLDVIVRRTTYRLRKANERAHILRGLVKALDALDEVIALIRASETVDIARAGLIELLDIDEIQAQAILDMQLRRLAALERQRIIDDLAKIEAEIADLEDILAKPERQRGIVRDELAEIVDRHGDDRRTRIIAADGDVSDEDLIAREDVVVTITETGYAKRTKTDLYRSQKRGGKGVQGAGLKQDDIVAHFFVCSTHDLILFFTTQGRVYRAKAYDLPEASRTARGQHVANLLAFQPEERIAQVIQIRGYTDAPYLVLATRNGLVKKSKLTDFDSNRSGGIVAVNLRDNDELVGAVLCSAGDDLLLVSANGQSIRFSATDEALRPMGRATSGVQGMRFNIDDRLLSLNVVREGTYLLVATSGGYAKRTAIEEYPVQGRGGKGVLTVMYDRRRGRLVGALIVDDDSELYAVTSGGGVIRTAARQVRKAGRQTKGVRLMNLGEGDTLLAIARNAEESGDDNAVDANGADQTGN

[3] = tested on: Mycobacterium tuberculosis; test: microbe, parasite or virus in culture; settings: H37Rv, 264 h
Description: Antibacterial activity against Mycobacterium tuberculosis H37Rv gyrA -FDASTetON-1 hypomorph assessed as inhibition of bacterial growth incubated for 11 days

Escherichia coli = test: microbe, parasite or virus in culture; settings: ATTC 25922, 192 h
[4] = tested on: Mycobacterium tuberculosis; test: microbe, parasite or virus in culture; settings: H37Rv, 264 h; remark: listed apart in the source
Description: Antibacterial activity against wild type Mycobacterium tuberculosis H37Rv assessed as inhibition of bacterial growth incubated for 11 days

Staphylococcus aureus = test: microbe, parasite or virus in culture; settings: ATTC 25923, 192 h

Chain of DNA gyrase (P0A0K8 whole entry): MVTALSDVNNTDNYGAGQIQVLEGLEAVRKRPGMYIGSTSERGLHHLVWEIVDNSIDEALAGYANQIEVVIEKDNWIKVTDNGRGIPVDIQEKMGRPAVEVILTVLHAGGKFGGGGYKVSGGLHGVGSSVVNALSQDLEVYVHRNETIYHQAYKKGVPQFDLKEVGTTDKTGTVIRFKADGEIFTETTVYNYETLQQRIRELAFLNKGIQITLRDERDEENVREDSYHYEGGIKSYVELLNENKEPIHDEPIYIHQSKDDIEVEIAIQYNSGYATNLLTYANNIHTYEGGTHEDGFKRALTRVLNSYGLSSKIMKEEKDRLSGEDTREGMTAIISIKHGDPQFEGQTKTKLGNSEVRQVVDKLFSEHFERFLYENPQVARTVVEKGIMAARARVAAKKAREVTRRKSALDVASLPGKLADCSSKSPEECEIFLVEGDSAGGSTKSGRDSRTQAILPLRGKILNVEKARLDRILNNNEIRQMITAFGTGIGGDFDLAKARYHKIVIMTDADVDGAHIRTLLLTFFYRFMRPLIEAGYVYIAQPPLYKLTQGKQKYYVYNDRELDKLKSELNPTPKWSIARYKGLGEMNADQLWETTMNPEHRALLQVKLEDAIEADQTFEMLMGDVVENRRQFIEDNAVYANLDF
Chain of DNA gyrase (P20831 whole entry): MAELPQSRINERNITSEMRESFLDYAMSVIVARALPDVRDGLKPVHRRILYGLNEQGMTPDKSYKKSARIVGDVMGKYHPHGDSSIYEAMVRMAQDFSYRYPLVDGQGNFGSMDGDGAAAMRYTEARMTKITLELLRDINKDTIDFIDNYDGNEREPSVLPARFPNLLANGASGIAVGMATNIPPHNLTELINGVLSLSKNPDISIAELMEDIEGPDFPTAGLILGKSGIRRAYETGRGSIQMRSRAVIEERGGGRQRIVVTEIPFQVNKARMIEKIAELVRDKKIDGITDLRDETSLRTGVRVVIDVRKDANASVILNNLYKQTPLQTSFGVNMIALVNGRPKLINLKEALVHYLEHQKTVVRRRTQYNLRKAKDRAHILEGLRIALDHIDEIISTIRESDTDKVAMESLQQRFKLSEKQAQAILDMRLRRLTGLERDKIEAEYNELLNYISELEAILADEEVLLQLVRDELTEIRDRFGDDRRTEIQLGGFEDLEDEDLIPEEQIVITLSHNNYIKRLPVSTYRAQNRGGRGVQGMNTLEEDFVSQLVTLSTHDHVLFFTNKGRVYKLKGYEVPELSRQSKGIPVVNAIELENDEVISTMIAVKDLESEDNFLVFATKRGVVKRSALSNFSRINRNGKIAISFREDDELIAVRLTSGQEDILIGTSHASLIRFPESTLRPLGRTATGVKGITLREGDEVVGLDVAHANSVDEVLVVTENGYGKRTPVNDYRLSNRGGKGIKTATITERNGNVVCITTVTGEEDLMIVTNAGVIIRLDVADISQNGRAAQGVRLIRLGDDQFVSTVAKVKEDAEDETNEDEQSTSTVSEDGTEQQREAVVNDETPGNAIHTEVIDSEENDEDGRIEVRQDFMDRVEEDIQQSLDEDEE

Structure (SMILES)	MIC [1]	MIC (Escherichia coli)	MIC (Staphylococcus aureus)	further results
C[C@@H]1CN2c3c(cc4c(-n5cncn5)noc4c3F)CC3(C(=O)NC(=O)NC3=O)[C@H]2[C@H](C)O1	0.24 µM (≈ 0.109 µg/mL)	2 µM (≈ 0.911 µg/mL)		IC50 (DNA gyrase): 1.7 µM; IC50 [2]: 18 µM; MIC50 [3]: 0.26 µM (≈ 0.118 µg/mL); MIC99 [3]: 0.65 µM (≈ 0.296 µg/mL); MIC50 [4]: 1.8 µM (≈ 0.82 µg/mL); MIC99 [4]: 3.8 µM (≈ 1.73 µg/mL)
C[C@@H]1CN2c3c(cc4c(-n5cncn5)noc4c3F)CC3(C(=O)NC(=O)NC3=O)[C@H]2[C@H](C)N1C#N	0.98 µM (≈ 0.47 µg/mL)	63 µM (≈ 30.2 µg/mL)	16 µM (≈ 7.67 µg/mL)	
C[C@@H]1CN2c3c(cc4c(OCC[C@@H]5CCC(=O)N5)noc4c3F)CC3(C(=O)NC(=O)NC3=O)[C@H]2[C@H](C)O1	3.9 µM (≈ 2.01 µg/mL)	> 125 µM	31 µM (≈ 16 µg/mL)	
CN[C@H]1CCN(c2noc3c(F)c4c(cc23)CC2(C(=O)NC(=O)NC2=O)[C@H]2[C@H](C)O[C@H](C)CN42)C1	63 µM (≈ 30.6 µg/mL)	125 µM (≈ 60.8 µg/mL)	125 µM (≈ 60.8 µg/mL)	
C[C@@H]1CN2c3c(cc4c(N5CC[C@H](N)C5)noc4c3F)CC3(C(=O)NC(=O)NC3=O)[C@H]2[C@H](C)O1	63 µM (≈ 29.8 µg/mL)	125 µM (≈ 59.1 µg/mL)	125 µM (≈ 59.1 µg/mL)	IC50 [2]: 34 µM
C[C@@H]1CN2c3c(cc4c(N5CCC[C@H](O)C5)noc4c3F)CC3(C(=O)NC(=O)NC3=O)[C@H]2[C@H](C)O1	16 µM (≈ 7.8 µg/mL)		94 µM (≈ 45.8 µg/mL)	
C[C@@H]1CN2c3c(cc4c(N5CC[C@@H](O)C5)noc4c3F)CC3(C(=O)NC(=O)NC3=O)[C@H]2[C@H](C)N1C#N			> 125 µM	
C[C@@H]1CN2c3c(cc4c(N5C(=O)OC[C@@H]5C)noc4c3F)CC3(C(=O)NC(=O)NC3=O)[C@H]2[C@H](C)N1C#N	3.9 µM (≈ 1.99 µg/mL)	3.9 µM (≈ 1.99 µg/mL)	1 µM (≈ 0.511 µg/mL)	
CO[C@H]1CCN(c2noc3c(F)c4c(cc23)CC2(C(=O)NC(=O)NC2=O)[C@H]2[C@H](C)O[C@H](C)CN42)C1	31 µM (≈ 15.1 µg/mL)	> 125 µM	> 125 µM	IC50 [2]: 77 µM
C[C@@H]1CN2c3c(cc4c(N5CC[C@H](O)C5)noc4c3F)CC3(C(=O)NC(=O)NC3=O)[C@H]2[C@H](C)N1C#N	7.8 µM (≈ 3.88 µg/mL)	> 125 µM		IC50 (DNA gyrase): 3.1 µM; MIC50 [3]: 1.75 µM (≈ 0.871 µg/mL); MIC99 [3]: 5.05 µM (≈ 2.51 µg/mL); MIC50 [4]: 5.35 µM (≈ 2.66 µg/mL); MIC99 [4]: 10.3 µM (≈ 5.12 µg/mL)
C[C@@H]1CN2c3c(cc4c(OC[C@@H]5CCC(=O)O5)noc4c3F)CC3(C(=O)NC(=O)NC3=O)[C@H]2[C@H](C)O1	2 µM (≈ 1 µg/mL)	> 125 µM	3.9 µM (≈ 1.96 µg/mL)	
C[C@@H]1CN2c3c(cc4c(OC[C@H]5CCC(=O)N5)noc4c3F)CC3(C(=O)NC(=O)NC3=O)[C@H]2[C@H](C)O1	> 125 µM			
Cc1nnc(-c2noc3c(F)c4c(cc23)CC2(C(=O)NC(=O)NC2=O)[C@H]2[C@H](C)N(C#N)[C@H](C)CN42)o1	1.5 µM (≈ 0.742 µg/mL)	> 125 µM	> 125 µM	
Cc1nnc(-c2noc3c(F)c4c(cc23)CC2(C(=O)NC(=O)NC2=O)[C@H]2[C@H](C)[C@@H](O)[C@H](C)CN42)o1	16 µM (≈ 7.75 µg/mL)	> 250 µM	> 250 µM	
C[C@@H]1CN2c3c(cc4c(N5C(=O)OC[C@@H]5C)noc4c3F)CC3(C(=O)NC(=O)NC3=O)[C@H]2[C@H](C)N1CC#N	> 125 µM	> 125 µM	> 125 µM	
C[C@@H]1CN2c3c(cc4c(N5CC[C@H](CO)C5)noc4c3F)CC3(C(=O)NC(=O)NC3=O)[C@H]2[C@H](C)O1	16 µM (≈ 7.8 µg/mL)	> 125 µM	> 125 µM	IC50 [2]: 18 µM
C[C@@H]1CN2c3c(cc4c(OC[C@H]5CCC(=O)O5)noc4c3F)CC3(C(=O)NC(=O)NC3=O)[C@H]2[C@H](C)O1	3.9 µM (≈ 1.96 µg/mL)	> 250 µM	> 250 µM	
C[C@@H]1CN2c3c(cc4c(N5CC[C@H](C#N)C5)noc4c3F)CC3(C(=O)NC(=O)NC3=O)[C@H]2[C@H](C)O1	4 µM (≈ 1.93 µg/mL)	31 µM (≈ 15 µg/mL)	> 125 µM	IC50 [2]: 10 µM
C[C@@H]1CN2c3c(cc4c(N5C(=O)OC[C@@H]5C)noc4c3F)CC3(C(=O)NC(=O)NC3=O)[C@H]2[C@H](C)N1	> 125 µM	31 µM (≈ 15.1 µg/mL)	63 µM (≈ 30.6 µg/mL)	
C[C@@H]1CN2c3c(cc4c(OC[C@@H]5CCC(=O)N5C)noc4c3F)CC3(C(=O)NC(=O)NC3=O)[C@H]2[C@H](C)O1	3.9 µM (≈ 2.01 µg/mL)	63 µM (≈ 32.5 µg/mL)	63 µM (≈ 32.5 µg/mL)	
C[C@@H]1CN2c3c(cc4c(N5CC[C@@](C)(O)C5)noc4c3F)CC3(C(=O)NC(=O)NC3=O)[C@H]2[C@H](C)O1	> 250 µM	> 250 µM	> 250 µM	
Cc1nnc(COc2noc3c(F)c4c(cc23)CC2(C(=O)NC(=O)NC2=O)[C@H]2[C@H](C)O[C@H](C)CN42)o1	63 µM (≈ 31.5 µg/mL)	> 125 µM	> 125 µM	

Structure (SMILES)	MIC [1]	MIC (Escherichia coli)	MIC (Staphylococcus aureus)	further results
C[C@@H]1CN2c3c(cc4c(OC[C@@H]5CNC(=O)C5)noc4c3F)CC3(C(=O)NC(=O)NC3=O)[C@H]2[C@H](C)O1	2 µM (≈ 1 µg/mL)	> 250 µM	> 125 µM	
Cc1nnc(-c2noc3c(F)c4c(cc23)CC2(C(=O)NC(=O)NC2=O)[C@H]2[C@H](C)O[C@H](C)CN42)o1	0.45 µM (≈ 0.212 µg/mL)	31 µM (≈ 14.6 µg/mL)		
C[C@H]1C[C@@H](C)[C@H]2N(C1)c1c(cc3c(OC[C@@H]4CCC(=O)N4)noc3c1F)CC21C(=O)NC(=O)NC1=O	16 µM (≈ 7.99 µg/mL)	63 µM (≈ 31.5 µg/mL)	7.8 µM (≈ 3.9 µg/mL)	
C[C@@H]1CN2c3c(cc4c(N5C[C@H](O)[C@@H](O)C5)noc4c3F)CC3(C(=O)NC(=O)NC3=O)[C@H]2[C@H](C)O1	31 µM (≈ 15.2 µg/mL)	> 125 µM		
C[C@@H]1CN2c3c(cc4c(OC[C@@H]5COC(=O)N5)noc4c3F)CC3(C(=O)NC(=O)NC3=O)[C@H]2[C@H](C)O1	2 µM (≈ 1.01 µg/mL)	> 250 µM		
CC(=O)N1[C@H](C)CN2c3c(cc4c(N5C(=O)OC[C@@H]5C)noc4c3F)CC3(C(=O)NC(=O)NC3=O)[C@H]2[C@@H]1C	> 125 µM	> 125 µM	> 125 µM	
C[C@@H]1CN2c3c(cc4c(N5CC[C@@H](O)C5)noc4c3F)CC3(C(=O)NC(=O)NC3=O)[C@H]2[C@H](C)O1	3.9 µM (≈ 1.85 µg/mL)			
C[C@@H]1CN2c3c(cc4c(N5CC[C@H](F)C5)noc4c3F)CC3(C(=O)NC(=O)NC3=O)[C@H]2[C@H](C)O1	4 µM (≈ 1.9 µg/mL)	31 µM (≈ 14.7 µg/mL)	2 µM (≈ 0.951 µg/mL)	
C[C@@H]1CN2c3c(cc4c(OC[C@H]5COC(=O)N5)noc4c3F)CC3(C(=O)NC(=O)NC3=O)[C@H]2[C@H](C)O1			63 µM (≈ 31.7 µg/mL)	
C[C@@H]1CN2c3c(cc4c(OC[C@@H]5CCC(=O)N5)noc4c3F)CC3(C(=O)NC(=O)NC3=O)[C@H]2[C@H](C)N1C#N	0.49 µM (≈ 0.257 µg/mL)	> 125 µM	> 125 µM	
C[C@@H]1CN2c3c(cc4c(N5CC[C@H](O)C5)noc4c3F)CC3(C(=O)NC(=O)NC3=O)[C@H]2[C@H](C)O1	5.9 µM (≈ 2.79 µg/mL)	> 125 µM	64 µM (≈ 30.3 µg/mL)	IC50 (DNA gyrase): 6.9 µM; IC50 [2]: 20 µM; MIC50 [3]: 0.92 µM (≈ 0.436 µg/mL); MIC99 [3]: 2.4 µM (≈ 1.14 µg/mL); MIC50 [4]: 3.3 µM (≈ 1.56 µg/mL); MIC99 [4]: 5.9 µM (≈ 2.79 µg/mL)
C[C@@H]1CN2c3c(cc4c(OC[C@@H]5CCC(=O)N5)noc4c3F)CC3(C(=O)NC(=O)NC3=O)[C@H]2[C@H](C)O1	1 µM (≈ 0.501 µg/mL)	> 125 µM	> 125 µM	IC50 [2]: 2.6 µM
C[C@@H]1CN2c3c(cc4c(N5C(=O)OC[C@@H]5C)noc4c3F)CC3(C(=O)NC(=O)NC3=O)[C@H]2[C@H](C)N1O	> 125 µM	> 125 µM	> 125 µM	
C[C@@H]1CN2c3c(cc4c(N5CC[C@H](C(=O)O)C5)noc4c3F)CC3(C(=O)NC(=O)NC3=O)[C@H]2[C@H](C)O1	> 125 µM	> 125 µM	> 125 µM	
C[C@@H]1CN2c3c(cc4c(N5C[C@@H](O)[C@H](O)C5)noc4c3F)CC3(C(=O)NC(=O)NC3=O)[C@H]2[C@H](C)O1	5.9 µM (≈ 2.89 µg/mL)		> 125 µM	IC50 (DNA gyrase): 6.6 µM; IC50 [2]: 16 µM; MIC50 [3]: 1.24 µM (≈ 0.607 µg/mL); MIC99 [3]: 3.2 µM (≈ 1.57 µg/mL); MIC50 [4]: 3.65 µM (≈ 1.79 µg/mL); MIC99 [4]: 6.75 µM (≈ 3.3 µg/mL)
C[C@@H]1CN2c3c(cc4c(OC[C@H]5CNC(=O)C5)noc4c3F)CC3(C(=O)NC(=O)NC3=O)[C@H]2[C@H](C)O1		63 µM (≈ 31.6 µg/mL)	31 µM (≈ 15.5 µg/mL)	
C[C@@H]1CN2c3c(cc4c(N5C[C@@H](O)[C@@H](O)C5)noc4c3F)CC3(C(=O)NC(=O)NC3=O)[C@H]2[C@H](C)O1	16 µM (≈ 7.83 µg/mL)			
C[C@@H]1CN2c3c(cc4c(N5CCC[C@@H](O)C5)noc4c3F)CC3(C(=O)NC(=O)NC3=O)[C@H]2[C@H](C)O1	10 µM (≈ 4.87 µg/mL)	> 125 µM		
COc1c(N2C[C@@H]3CCCN[C@@H]3C2)c(F)cc2c(=O)c(C(=O)O)cn(C3CC3)c12 [MOXIFLOXACIN]	0.17 µM (≈ 0.0682 µg/mL)			MIC50 [3]: 0.041 µM (≈ 0.0165 µg/mL); MIC99 [3]: 0.07 µM (≈ 0.0281 µg/mL); MIC50 [4]: 0.12 µM (≈ 0.0482 µg/mL); MIC99 [4]: 0.19 µM (≈ 0.0763 µg/mL)
CO[C@H]1/C=C/O[C@@]2(C)Oc3c(C)c(O)c4c(O)c(c(/C=N/N5CCN(C)CC5)c(O)c4c3C2=O)NC(=O)/C(C)=C\C=C\[C@H](C)[C@H](O)[C@@H](C)[C@@H](O)[C@@H](C)[C@H](OC(C)=O)[C@@H]1C [RIFAMPIN]				MIC50 [3]: 0.021 µM (≈ 0.0173 µg/mL); MIC99 [3]: 0.037 µM (≈ 0.0304 µg/mL); MIC50 [4]: 0.24 µM (≈ 0.198 µg/mL); MIC99 [4]: 0.041 µM (≈ 0.0337 µg/mL)
C[C@@H]1CN2c3c(cc4c(N5C(=O)OC[C@@H]5C)noc4c3F)CC3(C(=O)NC(=O)NC3=O)[C@H]2[C@H](C)O1 [ZOLIFLODACIN]	0.35 µM (≈ 0.171 µg/mL)	1.4 µM (≈ 0.682 µg/mL)		solubility kinetic at 20 h, 200 µM (physchem): 160 µM (≈ 78 µg/mL); MIC50 [3]: 4.6 µM (≈ 2.24 µg/mL); MIC99 [3]: 12 µM (≈ 5.85 µg/mL); MIC50 [4]: 20 µM (≈ 9.75 µg/mL); MIC99 [4]: 44 µM (≈ 21.4 µg/mL)
